The values that follow come from patent US5434138A, “Gonadoliberin antagonists” (Hoechst Aktiengesellschaft, priority 1990, dated 1995).

For series [1], the system named is rat peritoneal mast cells. Kind of series: Histamine release from peritoneal mast cells. Format: cell-based, Wistar rats. The following applies: 37° C., 30 minutes. How it is done: (§1) The peptides according to the invention have been tested for an atrophic effect on androgen-dependent organs and for an LH- and testosterone-lowering effect in serum and blood of male rats by continuous infusion (MINIPUMPS). The ovulation-inhibiting effect has been tested on female rats. The histamine release was checked using rat peritoneal mast cells.
Wistar rats were sacrificed by decapitation. 50 ml of a 0.9% strength NaCl solution were injected into the abdominal cavity and, after gentle massage, the abdominal wall was opened. The fluid, which contains the peritoneal cells, was aspirated using a Pasteur pipette and then centrifuged. The pelleted cells were resuspended and, after testing viability, diluted to 10^6 mast cells/ml.
150 μl of the dissolved gonadoliberin antagonist were added to a suspension of 10^5 mast cells in 150 μl of 0.9 % strength NaCl solution. After incubation at 37° C. for 30 minutes, the test tubes were centrifuged and the supernatant was removed. The LHRH antagonist Ac-D-Nal-D-p-Cl-D-Phe-D-Trp-Ser-Tyr-D-Ser(Rha)-Leu-Arg-Pro-Azagly-NH2, known to be a compound which induces histamine release by mast cells, was used as comparison substance. To determine the total histamine release (100%), the mast cell suspensions were rapidly boiled over a Bunsen burner.
A modified form of the methods described by Skofitsch et al. (J. Chromatography, 226, 53-59, 1981) and Siraganian and Hook (in Manual of Clinical Laboratory Immunology; eds: Rose et al. American Society of Microbiology, Washington D.C., pages 675, 1986) was used. Briefly summarized, 100 μl of a 1N NaOH and 100 μl of phthalaldehyde were added to 250 μl of supernatant and shaken vigorously. After a reaction time of 2 minutes, the fluorophore was converted into a more strongly fluorescent and stable product by acidification with 50 μl of 3N HCl. 10 μl of the supernatant were injected into the Chromspher C8 column (Chrompak FRW) of the HPLC system. This system comprises an SP 8100 chromatograph (Spectra Physics) and an SP 4270 integrator (Spectra Physics) and an LS-1 fluorescence detector (Perkin Elmer). The fluorescence was recorded at the wavelengths of 360 nm excitation and 450 nm emission.
Histamine release from peritoneal mast cells (μl/ml)

Series [2] has as its system serum testosterone. The series is described as follows: Testosterone-lowering effect on infusion by minipumps. The following applies: male rats, subcutaneous infusion by minipumps for 7 days. It is filed as in vivo, rat. As for the experimental part: as §1
The testosterone-lowering effect was tested on male rats during subcutaneous infusion for 7 days. The biological effect on androgen-dependent organs and serum testosterone was recorded. The test compounds were administered by subcutaneous infusion using minipumps at a rate of […] for 7 days. The test compounds were dissolved in sterile 5 % strength mannitol solution. The minipumps were implanted subcutaneously in the region of the back under anesthesia and aseptic conditions.
Serum testosterone was extracted with diethyl ether and determined by a specific RIA.
Testosterone-lowering effect on infusion by minipumps

Series [3] has as its system immature female rats (LHRH-induced ovulation). The series is described as follows: Rat antiovulation assay. Format: in vivo. The following applies: PMSG-pretreated immature female rats, phenobarbital; 800 ng LHRH s.c. 2 hours after antagonist. How it is done: as §1
The ovulation-inhibiting effect was tested in immature female rats which had been pretreated with PMSG (pregnant mare serum gonadotropin) in order to induce follicle maturation, Spontaneous ovulation was prevented by barbiturate (phenobarbital). A test dose of 800 ng of LHRH was injected subcutaneously 2 hours after the antagonists. The test substances were injected subcutaneously dissolved in 5% strength mannitol solution. The next day the Fallopian tubes were dissected out and stained with Patent Blue, and the tubular oocytes were counted under a microscope. The dose for an ovulation-inhibiting effect (ED 100) was determined for all the antagonists.

Series [4] deals with histamine secretion. The following applies: A. Phillips et al., Life Sci. 41 (1987); cited from earlier work.

Consider “Ac-D-Nal-D-p-Cl-Phe-D-Pal-Ser-Tyr-D-Ser(Rha)-Leu-Ser (Rha)-Pro-Azagly-NH2 [Example 2]”, for which the “Histamine release, percentage relative to total histamine release on boiling” value in series [1] (0.01 (μl/ml) antagonist) stood at 2.5%; in series [1] (0.1 (μl/ml) antagonist), 4.6%; in series [1] (1 (μl/ml) antagonist) it was 3.7%; in series [1] (10 (μl/ml) antagonist), 0.9%; in series [1] (100 (μl/ml) antagonist), 0.0%. For the same substance, the “Testosterone-lowering effect on infusion by minipumps: Dose per day” value (from here on “Testosterone-lowering effect … per day”) in series [2] is 120 μg/24 h/rat. For the same substance, the “Ovulation-inhibiting dose (ED 100)” value in series [3] came out at 256 ng per rat s.c.

Take “Ac-D-NaI-D-p-Cl-Phe-D-Trp-Ser-Tyr-D-Ser(Rha)-Leu-Ser(Rha)-pro-Azagly-NH2 [Example 1]”: the “Histamine release, percentage relative to total histamine release on boiling” value in series [1] (0.01 (μl/ml) antagonist) is 0.33%; in series [1] (0.1 (μl/ml) antagonist), 2.82%; in series [1] (1 (μl/ml) antagonist), -2.16%; in series [1] (10 (μl/ml) antagonist), -5.37%; in series [1] (100 (μl/ml) antagonist) it was -8.61%. Further, the “Testosterone-lowering effect … per day” value in series [2] came out at 120 μg/24 h/rat. Besides, the “Ovulation-inhibiting dose (ED 100)” value in series [3] was 120 ng per rat s.c.

Take Nal-Glu: in series [4], the histamine secretion result was “greatly reduced”.

As for “Ac-D-Nal-D-p-Cl-D-Phe-D-Trp-Ser-Tyr-D-Ser(Rha)-Leu-Arg-Pro-Azagly-NH2 [Comparison substance, reference compound]”, the “Histamine release, percentage relative to total histamine release on boiling” value in series [1] (0.01 (μl/ml) antagonist) was 2.6%; in series [1] (0.1 (μl/ml) antagonist), 2.1%; in series [1] (1 (μl/ml) antagonist), 15.3%; in series [1] (10 (μl/ml) antagonist) it was 92.4%; in series [1] (100 (μl/ml) antagonist) it was 107.6%.

Consider “Ac-D-Nal-D-p-Cl-Phe-D-Pal-Ser-Tyr-D-Ser(Rha)-Leu-Ser(Fuc)-Pro-Azagly-NH2 [Example 4]”, for which the “Testosterone-lowering effect … per day” value in series [2] is 60 μg/24 h/rat. Further, the “Ovulation-inhibiting dose (ED 100)” value in series [3] turned out to be 64 ng per rat s.c.

As to “Ac-D-Nal-D-p-Cl-Phe-D-Pal-Ser-Tyr-D-Ser(Rha)-Leu-Ser(Rha)-Pro-D-Ala-NH2 [Example 5]”, the “Histamine release, percentage relative to total histamine release on boiling” value worked out at 1.9% in series [1] (0.01 (μl/ml) antagonist); 2.4% in series [1] (0.1 (μl/ml) antagonist); 0.9% in series [1] (1 (μl/ml) antagonist); 0.3% in series [1] (10 (μl/ml) antagonist); 3.8% in series [1] (100 (μl/ml) antagonist). Besides, the “Testosterone-lowering effect … per day” value in series [2] is given as 60 μg/24 h/rat. Further, the “Ovulation-inhibiting dose (ED 100)” value in series [3] worked out at 64 ng per rat s.c.

On to “Ac-D-Nal-D-p-Cl-Phe-D-Trp-Ser-Tyr-D-Ser(Rha)-Leu-Ser(Xyl)-Pro-Azagly-NH2 [Example 3]”, for which the “Testosterone-lowering effect … per day” value in series [2] stood at 120 μg/24 h/rat. The “Ovulation-inhibiting dose (ED 100)” value in series [3] is recorded as 512 ng per rat s.c.
